In experiment [1] the target is Induced myeloid leukemia cell differentiation protein Mcl-1 (Homo sapiens, UniProt Q07820). In kind it is functional.
The nature of experiment [2]: IC50 of Artemis nuclease activity blockers – biochemical, fluorescence intensity, dose response (AID 720701).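 Further: Artemis endonuclease enzyme.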 In kind it is functional.
A further experiment addresses Bcl-2-like protein 10 (Homo sapiens, UniProt Q9HD36). Nature of the experiment: Bcl-B/TR3 peptide binding disruption – biochemical, fluorescence polarization, FITC-TR3 peptide, selectivity assay for Bfl-1 inhibitor project, primary screen (AID 748). (Fluorescence polarisation rises when a labelled molecule tumbles more slowly, as on binding a larger partner.)
A short description of experiment [3]: MIN6 cell viability loss – mouse insulinoma, cytotoxicity control, dose response (AID 2122).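 Further: confirmatory high-throughput counterscreen run to flag cytotoxic compounds.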 In kind it is functional.
For another experiment, the system named is INS1. Nature of the experiment: INS-1E survival protection against cytokine death – cell-based, luminescence, retest, dose response (AID 449756).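 Further: cell death triggered by IL-1 beta plus TNF-alpha plus IFN-gamma mixture; protective hits raise ATP signal compared with cytokine alone wells.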 The note with it: Rattus norvegicus. It is filed as functional.
The target of experiment [4] is E3 ubiquitin-protein ligase UHRF1 (Homo sapiens, UniProt Q96T88). Nature of the experiment: Counterscreen for inhibitors of 5-meCpG-binding domain protein 2 (MBD2): TRFRET-based biochemical high throughput dose response assay to identify inhibitors of binding of ubiquitin-like with PHD and ring finger domains 1 (UHRF1) to methylated oligonucleotide.
E3 ubiquitin-protein ligase UHRF1, sequence (Q96T88 whole entry, the tested form may be a part): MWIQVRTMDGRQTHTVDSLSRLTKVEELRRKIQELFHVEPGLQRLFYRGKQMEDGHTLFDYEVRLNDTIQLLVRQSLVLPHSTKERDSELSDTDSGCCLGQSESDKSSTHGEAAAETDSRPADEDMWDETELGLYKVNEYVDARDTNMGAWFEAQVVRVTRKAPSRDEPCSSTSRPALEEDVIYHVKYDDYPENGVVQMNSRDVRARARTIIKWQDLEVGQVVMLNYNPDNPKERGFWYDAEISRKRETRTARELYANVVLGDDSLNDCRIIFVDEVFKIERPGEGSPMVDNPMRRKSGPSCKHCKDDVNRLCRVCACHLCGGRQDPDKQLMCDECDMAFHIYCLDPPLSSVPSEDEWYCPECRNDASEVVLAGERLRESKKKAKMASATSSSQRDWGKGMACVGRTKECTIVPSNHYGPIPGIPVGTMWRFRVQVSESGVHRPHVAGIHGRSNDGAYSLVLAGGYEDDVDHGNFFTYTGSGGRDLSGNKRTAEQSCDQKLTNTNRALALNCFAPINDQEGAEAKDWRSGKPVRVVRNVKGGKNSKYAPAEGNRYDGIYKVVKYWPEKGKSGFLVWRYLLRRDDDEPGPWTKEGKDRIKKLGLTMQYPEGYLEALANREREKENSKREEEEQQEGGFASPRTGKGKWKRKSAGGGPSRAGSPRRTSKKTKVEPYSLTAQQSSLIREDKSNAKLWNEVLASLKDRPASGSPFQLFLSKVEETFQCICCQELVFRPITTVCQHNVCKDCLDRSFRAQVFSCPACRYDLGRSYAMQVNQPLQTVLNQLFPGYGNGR
The nature of experiment [5]: decrease of insulin promoter-GFP reporter – imaging, high-content screening, mouse beta cells (AID 1628). In kind it is functional. The note with it: MIN6.
The target of experiment [6] is Bifunctional protein GlmU (Mycobacterium tuberculosis, UniProt P9WMN3). Nature of the experiment: Inhibitors of Mycobacterial Glucosamine-1-phosphate acetyl transferase (GlmU). Secondary screen. More on the design: species or system Mycobacterium tuberculosis H37Rv.
Bifunctional protein GlmU, sequence (P9WMN3 whole entry): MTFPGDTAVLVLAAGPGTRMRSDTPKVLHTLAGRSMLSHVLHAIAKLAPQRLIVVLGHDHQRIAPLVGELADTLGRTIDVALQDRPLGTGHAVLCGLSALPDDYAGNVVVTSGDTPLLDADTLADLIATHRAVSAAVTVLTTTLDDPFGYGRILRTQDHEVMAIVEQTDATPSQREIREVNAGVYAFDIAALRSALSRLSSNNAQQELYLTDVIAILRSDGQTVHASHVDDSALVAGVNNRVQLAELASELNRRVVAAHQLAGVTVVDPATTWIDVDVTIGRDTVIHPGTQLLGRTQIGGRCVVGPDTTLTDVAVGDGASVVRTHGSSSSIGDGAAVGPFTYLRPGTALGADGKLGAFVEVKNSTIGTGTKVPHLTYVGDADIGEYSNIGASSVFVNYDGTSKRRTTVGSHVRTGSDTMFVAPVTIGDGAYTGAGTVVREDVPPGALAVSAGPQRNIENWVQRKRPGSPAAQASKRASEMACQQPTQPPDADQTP
Experiment [7] has as its target E3 ubiquitin-protein ligase XIAP (Homo sapiens, UniProt P98170). Nature of the experiment: Counter Screen using XIAP-Bir3 for Chemical Antagonists of Bir1/2 domains of IAP-family anti-apoptotic proteins. [Related pubchem assays (depositor defined):AID1018, AID1449, AID1514, AID1638, AID1749, AID1750, AID488957, AID488963].
In the next experiment the target is Genome polyprotein (dengue virus type 2, UniProt P29990). Nature of the experiment: flavivirus cap methylation enzyme inhibition – biochemical, confirmation dose response, primary screen (AID 588689). It is filed as functional.
Genome polyprotein, sequence (P29990 2492-3391 limits assumed): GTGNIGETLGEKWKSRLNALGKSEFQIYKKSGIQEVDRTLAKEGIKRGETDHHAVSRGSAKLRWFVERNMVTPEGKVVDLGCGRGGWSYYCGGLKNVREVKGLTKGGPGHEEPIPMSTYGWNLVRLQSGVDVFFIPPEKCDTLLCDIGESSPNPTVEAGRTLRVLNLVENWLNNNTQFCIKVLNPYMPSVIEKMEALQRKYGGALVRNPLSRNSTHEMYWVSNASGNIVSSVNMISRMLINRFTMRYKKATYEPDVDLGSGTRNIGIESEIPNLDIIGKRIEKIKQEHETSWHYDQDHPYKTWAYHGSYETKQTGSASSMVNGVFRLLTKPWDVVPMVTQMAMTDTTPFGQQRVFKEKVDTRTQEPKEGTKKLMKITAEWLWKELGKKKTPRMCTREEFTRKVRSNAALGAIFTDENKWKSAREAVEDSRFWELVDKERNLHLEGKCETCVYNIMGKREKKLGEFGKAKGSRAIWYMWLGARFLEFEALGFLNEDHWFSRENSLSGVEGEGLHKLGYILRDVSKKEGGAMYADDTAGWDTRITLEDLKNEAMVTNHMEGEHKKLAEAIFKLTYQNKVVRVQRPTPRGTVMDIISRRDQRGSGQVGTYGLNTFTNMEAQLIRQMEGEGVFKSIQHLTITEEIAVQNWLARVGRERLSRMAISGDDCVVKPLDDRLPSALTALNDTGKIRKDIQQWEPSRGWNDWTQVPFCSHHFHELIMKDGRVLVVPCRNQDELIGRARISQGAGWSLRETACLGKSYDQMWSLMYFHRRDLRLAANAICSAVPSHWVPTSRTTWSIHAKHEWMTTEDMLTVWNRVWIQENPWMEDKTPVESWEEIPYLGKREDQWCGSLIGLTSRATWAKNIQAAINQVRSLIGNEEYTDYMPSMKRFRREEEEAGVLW
The target of a further experiment is T1, Aminopeptidase N (Plasmodium falciparum FcB1/Columbia, UniProt O96935).
T1 sequence (O96935 whole entry): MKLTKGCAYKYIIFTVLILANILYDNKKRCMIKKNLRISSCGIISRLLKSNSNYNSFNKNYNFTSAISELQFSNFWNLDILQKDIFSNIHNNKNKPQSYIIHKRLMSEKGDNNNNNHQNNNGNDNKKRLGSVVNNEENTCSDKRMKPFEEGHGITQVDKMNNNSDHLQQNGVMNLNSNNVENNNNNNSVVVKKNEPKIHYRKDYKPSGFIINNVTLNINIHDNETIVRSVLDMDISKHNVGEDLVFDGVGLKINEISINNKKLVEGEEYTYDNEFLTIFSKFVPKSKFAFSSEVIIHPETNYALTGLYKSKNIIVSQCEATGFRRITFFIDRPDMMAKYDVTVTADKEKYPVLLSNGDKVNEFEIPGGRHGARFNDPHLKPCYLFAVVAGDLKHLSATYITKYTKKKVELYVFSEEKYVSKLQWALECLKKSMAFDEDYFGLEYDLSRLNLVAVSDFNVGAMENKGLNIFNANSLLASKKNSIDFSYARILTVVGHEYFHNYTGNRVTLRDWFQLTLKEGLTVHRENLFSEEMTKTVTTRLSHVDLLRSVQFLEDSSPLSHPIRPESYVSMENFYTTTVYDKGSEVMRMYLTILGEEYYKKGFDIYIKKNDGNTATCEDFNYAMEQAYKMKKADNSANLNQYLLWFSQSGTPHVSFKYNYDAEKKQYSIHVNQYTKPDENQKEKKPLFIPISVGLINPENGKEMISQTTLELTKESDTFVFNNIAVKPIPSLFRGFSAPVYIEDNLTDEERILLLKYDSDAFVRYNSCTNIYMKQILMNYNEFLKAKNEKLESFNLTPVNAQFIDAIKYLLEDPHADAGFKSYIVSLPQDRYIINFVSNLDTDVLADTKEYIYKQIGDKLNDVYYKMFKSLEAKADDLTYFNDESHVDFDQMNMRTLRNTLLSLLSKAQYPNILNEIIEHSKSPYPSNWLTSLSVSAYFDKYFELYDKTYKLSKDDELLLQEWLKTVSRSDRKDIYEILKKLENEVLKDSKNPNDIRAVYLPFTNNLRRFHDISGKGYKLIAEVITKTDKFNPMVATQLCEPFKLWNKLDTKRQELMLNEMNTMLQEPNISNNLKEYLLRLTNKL
Nature of the experiment: malaria alanyl aminopeptidase activity blockers – biochemical, fluorogenic H-Leu-NHMec substrate, 1536-well (AID 1445). More on the design: species or system Plasmodium falciparum 3D7, 3D7.

In experiment [8] the target is T2, Long-chain-fatty-acid--AMP ligase FadD28 (Mycobacterium tuberculosis, UniProt P9WQ59).
T2 sequence (P9WQ59 whole entry): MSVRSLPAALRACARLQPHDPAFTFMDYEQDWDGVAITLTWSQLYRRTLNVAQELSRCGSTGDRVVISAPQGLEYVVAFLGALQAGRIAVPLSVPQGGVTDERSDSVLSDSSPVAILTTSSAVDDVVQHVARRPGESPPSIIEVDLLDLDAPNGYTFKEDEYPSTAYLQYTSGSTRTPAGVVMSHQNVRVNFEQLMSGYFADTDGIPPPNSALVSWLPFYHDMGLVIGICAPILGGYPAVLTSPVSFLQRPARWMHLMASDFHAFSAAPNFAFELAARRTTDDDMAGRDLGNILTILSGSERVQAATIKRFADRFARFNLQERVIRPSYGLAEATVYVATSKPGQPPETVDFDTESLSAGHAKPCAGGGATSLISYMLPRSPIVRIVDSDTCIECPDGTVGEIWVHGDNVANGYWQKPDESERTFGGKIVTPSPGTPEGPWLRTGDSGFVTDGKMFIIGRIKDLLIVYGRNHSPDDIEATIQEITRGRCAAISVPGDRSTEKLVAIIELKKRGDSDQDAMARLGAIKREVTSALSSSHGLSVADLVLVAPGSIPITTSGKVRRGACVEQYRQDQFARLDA
Nature of the experiment: Fluorescence polarization aasay to screen for inhibitors that compete for the binding of FadD28 to a bisubstrate Measured in Biochemical System Using Plate Reader - 2147-01_Inhibitor_Dose_CherryPick_Activity. In kind it is functional, Mycobacterium tuberculosis H37Rv.

A further experiment has as its target Caspase-6 (Homo sapiens, UniProt P55212). Nature of the experiment: inhibition of CASP6 peptide cleavage – biochemical, VEID-R110 fluorescence, cherry-pick, dose response (AID 720632).
A short description of experiment [9]: luciferase signal loss, tTA control fusion, HeLa F-luc tTA cells, dry powder, counter-screen for HIV Env fusion inhibitor project, dose response (AID 687021). In kind it is functional, cell-based. A general note: A counterscreen serves to expose hits that act by an unwanted route or on another target.
Experiment [10] is described as follows: inhibition of Env-driven cell fusion – HIV entry, plate reader, dry powder, dose response (AID 687023). In kind it is functional, cell-based.
Experiment [11] can be described thus: reduced cellular PGC1a acetyl-lysine signal – cell-based, cherry-picked samples, dose response (AID 720514).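 Further: potency may reflect raised or lowered acetylation signal.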 It is filed as functional.
Experiment [12] concerns the target COUP transcription factor 2 (Homo sapiens, UniProt P24468). Nature of the experiment: Luminescence-based cell-based high throughput dose response assay to identify inhibitors of COUP-TFII (NR2F2). In kind it is functional.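 Further: HEK293 cells transiently cotransfected with COUP-TFII expression vector and reporter; luciferase reporter luminescence driven by COUP-TFII from the pX2-168 reporter plasmid.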
Experiment [13] in a line: OVCAR8 cell viability loss – plate reader, dry powder samples, PAX8 project, dose response (AID 743197). It is filed as functional, cell-based. The note with it: OVCAR-8.
The nature of experiment [14]: toxicity toward immortalized ovarian surface epithelium – cell-based, plate reader, dry powder samples, cytotoxicity control for PAX8 inhibitor project, dose response (AID 743045). In kind it is functional.
Experiment [15] is described as follows: IGROV1 cell killing – plate reader, dry powder samples, PAX8 inhibitor project, dose response (AID 743043). In kind it is functional, cell-based. The note with it: IGROV-1.
Another experiment addresses Paired box protein Pax-8 (Homo sapiens, UniProt Q06710). Nature of the experiment: PAX8 transcriptional activity inhibition in RMG-I – RMG-I cells, luciferase, cherry-pick, dose response (AID 687027).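 Further: luciferase reporter driven by Pax8 target thyroperoxidase promoter measured by SteadyGlo luminescence.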 In kind it is functional, cell-based.
The nature of experiment [16]: OVCAR-3 cell viability loss – plate reader, dry powder samples, PAX8 inhibitor project, dose response (AID 743044). In kind it is functional, cell-based.
A further experiment concerns the target Vasopressin V2 receptor (Homo sapiens, UniProt P30518). Nature of the experiment: Late-stage results from the probe development effort to identify antagonists of arginine vasopressin receptor 1a (AVPR1a): fluorescence-based cell-based dose response AVPR2 inhibition counterscreen assay. It is filed as functional.
In the next experiment the target is Vasopressin V1b receptor (Homo sapiens, UniProt P47901). Nature of the experiment: Late-stage results from the probe development effort to identify antagonists of arginine vasopressin receptor 1a (AVPR1a): fluorescence-based cell-based dose response AVPR1b inhibition counterscreen assay. It is filed as functional.
Vasopressin V1b receptor, sequence (P47901 whole entry): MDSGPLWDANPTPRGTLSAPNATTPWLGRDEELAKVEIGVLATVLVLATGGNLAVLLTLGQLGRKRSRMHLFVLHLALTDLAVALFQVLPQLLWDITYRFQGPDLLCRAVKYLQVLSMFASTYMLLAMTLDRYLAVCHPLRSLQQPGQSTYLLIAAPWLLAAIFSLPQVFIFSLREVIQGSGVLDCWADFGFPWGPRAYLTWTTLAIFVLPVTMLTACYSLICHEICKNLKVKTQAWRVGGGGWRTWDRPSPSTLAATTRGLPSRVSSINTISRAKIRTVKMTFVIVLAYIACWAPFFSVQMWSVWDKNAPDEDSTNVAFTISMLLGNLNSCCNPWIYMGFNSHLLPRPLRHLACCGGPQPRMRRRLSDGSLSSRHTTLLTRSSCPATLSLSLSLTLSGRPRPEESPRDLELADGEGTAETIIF
Experiment [17] is described as follows: Late-stage results from the probe development effort to identify antagonists of arginine vasopressin receptor 1a (AVPR1a): fluorescence-based cell-based dose response OXTR inhibition counterscreen assay. In kind it is functional.
Experiment [18] is described as follows: Late-stage results from the probe development effort to identify antagonists of arginine vasopressin receptor 1a (AVPR1a): fluorescence-based cell-based dose response AVPR1a inhibition assay. In kind it is functional.
The nature of experiment [19]: viability loss in A549 lung cells – cell-based, 24 h, CellTiter-Glo luminescence, cherry-picks, cytotoxicity control, dose response (AID 1053115). In kind it is functional. The note with it: A549, 24 h. For orientation: ATP-based viability assays read luminescence as a measure of living cells.

Active and inactive are the calls of the source.

Drawing on ChEMBL document CHEMBL1201862, “PubChem BioAssay data set” (2004), this text covers IC50 and AC50 for nine molecules.

Induced myeloid leukemia cell differentiation protein Mcl-1, sequence (Q07820 whole entry): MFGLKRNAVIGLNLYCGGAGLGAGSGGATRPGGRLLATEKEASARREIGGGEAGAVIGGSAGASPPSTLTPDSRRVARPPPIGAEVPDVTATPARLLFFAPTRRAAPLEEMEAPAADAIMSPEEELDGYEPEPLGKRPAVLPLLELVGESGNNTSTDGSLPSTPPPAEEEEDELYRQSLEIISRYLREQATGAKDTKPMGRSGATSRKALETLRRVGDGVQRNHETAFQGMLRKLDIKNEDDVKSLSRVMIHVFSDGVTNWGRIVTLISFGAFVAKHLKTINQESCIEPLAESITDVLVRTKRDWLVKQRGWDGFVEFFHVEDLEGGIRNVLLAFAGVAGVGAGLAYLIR
Vasopressin V2 receptor, sequence (P30518 whole entry): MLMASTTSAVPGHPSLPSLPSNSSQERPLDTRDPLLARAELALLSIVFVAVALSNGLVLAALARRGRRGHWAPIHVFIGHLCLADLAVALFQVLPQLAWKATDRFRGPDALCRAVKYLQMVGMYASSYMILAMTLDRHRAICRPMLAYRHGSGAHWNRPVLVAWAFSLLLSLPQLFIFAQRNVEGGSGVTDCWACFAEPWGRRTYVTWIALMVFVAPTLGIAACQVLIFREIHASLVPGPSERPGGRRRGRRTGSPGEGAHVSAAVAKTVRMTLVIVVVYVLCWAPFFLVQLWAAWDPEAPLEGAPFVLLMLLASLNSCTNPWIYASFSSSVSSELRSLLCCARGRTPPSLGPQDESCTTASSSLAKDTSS
Bcl-2-like protein 10, sequence (Q9HD36 whole entry): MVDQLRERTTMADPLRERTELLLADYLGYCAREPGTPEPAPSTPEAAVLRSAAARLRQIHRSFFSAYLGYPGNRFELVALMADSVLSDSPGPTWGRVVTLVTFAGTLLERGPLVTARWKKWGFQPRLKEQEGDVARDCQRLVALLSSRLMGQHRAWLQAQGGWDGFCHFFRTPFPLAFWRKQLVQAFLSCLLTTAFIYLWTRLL
COUP transcription factor 2, sequence (P24468 whole entry): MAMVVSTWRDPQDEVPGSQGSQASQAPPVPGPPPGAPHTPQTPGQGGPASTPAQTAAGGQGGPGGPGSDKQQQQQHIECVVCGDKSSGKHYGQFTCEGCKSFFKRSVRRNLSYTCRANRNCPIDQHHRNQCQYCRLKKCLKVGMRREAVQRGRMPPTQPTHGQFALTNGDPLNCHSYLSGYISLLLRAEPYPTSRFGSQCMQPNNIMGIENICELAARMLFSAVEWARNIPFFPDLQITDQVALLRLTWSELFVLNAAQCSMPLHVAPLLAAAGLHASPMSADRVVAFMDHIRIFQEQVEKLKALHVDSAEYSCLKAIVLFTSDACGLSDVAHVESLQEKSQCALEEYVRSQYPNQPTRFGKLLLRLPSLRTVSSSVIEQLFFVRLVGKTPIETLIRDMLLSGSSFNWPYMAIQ
E3 ubiquitin-protein ligase XIAP, sequence (P98170 whole entry): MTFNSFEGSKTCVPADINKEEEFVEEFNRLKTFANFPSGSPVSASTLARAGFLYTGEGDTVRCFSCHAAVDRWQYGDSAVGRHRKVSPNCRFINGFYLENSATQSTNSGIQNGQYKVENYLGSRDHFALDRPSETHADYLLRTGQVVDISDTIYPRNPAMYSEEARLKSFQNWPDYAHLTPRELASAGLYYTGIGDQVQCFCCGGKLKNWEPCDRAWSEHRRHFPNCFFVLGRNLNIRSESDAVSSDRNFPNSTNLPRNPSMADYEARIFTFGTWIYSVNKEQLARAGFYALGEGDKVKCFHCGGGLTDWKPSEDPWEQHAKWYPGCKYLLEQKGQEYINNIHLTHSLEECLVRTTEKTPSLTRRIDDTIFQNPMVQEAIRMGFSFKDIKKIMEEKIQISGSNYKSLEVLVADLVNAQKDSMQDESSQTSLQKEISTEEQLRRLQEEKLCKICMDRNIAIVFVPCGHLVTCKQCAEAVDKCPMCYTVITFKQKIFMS
Caspase-6, sequence (P55212 24-179 limits assumed): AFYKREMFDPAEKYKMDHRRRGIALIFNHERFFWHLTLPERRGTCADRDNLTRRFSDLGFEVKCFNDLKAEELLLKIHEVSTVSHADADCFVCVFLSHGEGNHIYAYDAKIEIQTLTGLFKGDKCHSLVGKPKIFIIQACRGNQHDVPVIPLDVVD
Caspase-6, sequence (P55212 194-293 limits assumed): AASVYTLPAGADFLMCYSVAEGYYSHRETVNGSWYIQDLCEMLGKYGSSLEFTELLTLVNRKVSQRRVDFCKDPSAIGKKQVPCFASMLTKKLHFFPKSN

As for `COc1ccc(C(=O)Nc2ccc(N3CCCC3)cc2)cc1`, the half-inhibitory concentration (IC50) (as a rule, the concentration at which inhibition is half-maximal) in [1] is 3.44 µM (active); in [2] it was 16.2 µM (active); on Bcl-2-like protein 10, 41.9 µM (active).
Take `[O-][Cl+3]([O-])([O-])[O-].c1ccc(-c2cc(-c3ccccc3)[n+](-c3ccccc3)c(-c3ccccc3)c2)cc1`: the IC50 in experiment [3] is 1.77 µM (active); in experiment [4], 14.3 µM (inactive); in experiment [5], 1.06 µM (active). In addition, the AC50 (usually the concentration giving half of the maximal activity seen) in the experiment on INS1 was 2.59 µM (active).
As for `O=C(Nc1cccc(Oc2ccc(C(=O)O)c(C(=O)O)c2)c1)c1ccc(-c2ccccc2)cc1`, the half-inhibitory concentration (IC50) in experiment [6] is 147 µM (active); in [7], > 20 µM (inactive); in [1], 4.44 µM (active); on Genome polyprotein, 20.5 µM (active); at Aminopeptidase N it was 44.7 µM (active). For the same molecule, the AC50 in experiment [8] was 82.4 µM (active); at Caspase-6, 15.7 µM (active).
On to `CCOc1ccc(S(=O)(=O)NCc2ccccn2)cc1`, for which the AC50 in experiment [9] and in experiment [10] was > 70 µM (inactive) each time.
For `CCOc1ccc(N2C(=O)Cc3ccccc3C2=O)cc1`, the AC50 in [11] is 32.7 µM (active).
Take `Cc1ccc(-n2nc3c(=O)n(C(C)C(=O)NCCCc4ccccc4)nc(C)c3c2C)cc1` (stereo not drawn): the IC50 in experiment [12] is 11.7 µM (inactive).
As for `C[C@@H]1CCCCO[C@@H](CN(C)Cc2ccc3c(c2)OCO3)[C@H](C)CN([C@@H](C)CO)C(=O)c2cc(NC(=O)Nc3ccc(C(F)(F)F)cc3)ccc2O1`, the AC50 in [13] is 30.2 µM (active); in experiment [14] it was 63.2 µM (active); in experiment [15], 34 µM (active); at Paired box protein Pax-8, 14.5 µM (active); in experiment [16], 15.4 µM (active).
On to `O=C(C1CCN(c2ncccc2C(F)(F)F)CC1)N(CC1CC1)c1ccc(Cl)cc1`, for which the IC50 at Vasopressin V2 receptor is 5.91 µM (active); at Vasopressin V1b receptor, 5.93 µM (active); in experiment [17], 0.8 µM (active); in experiment [18] it was 0.084 µM (active).
Regarding `COc1ccccc1CN1CC[C@@H]2[C@H]1c1cc(C#Cc3ccccc3)ccc1N[C@@H]2CO`, the concentration at half-maximal activity (AC50) in experiment [19] was 46.8 µM (active).
